Data taken from PubChem BioAssay (NCI).
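These data come from cells grown in 96-well plates and exposed to compound for 48 hours at five concentrations. Here, GI50 denotes the concentration required for 50% inhibition of growth. The concentration for full growth arrest is given as TGI.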

Columns and labels:
Experiment in all cases: DTP human tumour cell line panel, 48 h
[1] = tested on: COLO 205 colon
[2] = tested on: NCI-H226 lung
[3] = tested on: IGROV1 ovarian
[4] = tested on: ACHN renal
[5] = tested on: SF-539 CNS
[6] = tested on: A549 NSCLC
[7] = tested on: MDA-MB-435
[8] = tested on: NCI-H23 lung
[9] = tested on: OVCAR-5 ovarian
[10] = tested on: HCC-2998 colon

CC(=O)Nc1ncc(Sc2ccccc2C(=O)O)s1
TGI [1]: > 100 µM
TGI [2]: > 100 µM
TGI [3]: > 100 µM
TGI [4]: > 100 µM
TGI [5]: > 100 µM
TGI [6]: > 100 µM
TGI [7]: > 100 µM
TGI [8]: > 100 µM
TGI [9]: > 100 µM

Cc1c(-c2cc3n(n2)C(c2cccs2)C(C#N)=C(c2ccccc2)N3)c(=O)n(-c2ccccc2)n1C (stereo not given)
TGI [1]: > 100 µM
TGI [2]: > 100 µM
TGI [3]: > 100 µM
TGI [5]: > 100 µM
TGI [6]: > 100 µM
TGI [8]: > 100 µM
TGI [10]: > 100 µM
TGI [9]: > 100 µM

O=C1OC(c2ccc(O)c(Cl)c2)(c2ccc(O)c(Cl)c2)c2ccc(Br)c3cccc1c23 (tested in a mixture with another compound)
TGI [1]: 23.1 µM
TGI [2]: 41.1 µM
TGI [3]: 44.5 µM
GI50 [4]: 13.9 µM
TGI [4]: 27.2 µM
TGI [5]: 32.4 µM
TGI [6]: 38.9 µM
TGI [7]: 34.3 µM
TGI [8]: 34.8 µM
TGI [10]: 35 µM
TGI [9]: 34.5 µM

O=C(Oc1ccccc1)c1cc2cc(CCl)ccc2oc1=O
TGI [1]: 52.9 µM
TGI [2]: > 100 µM
TGI [3]: > 100 µM
TGI [4]: 21.1 µM
TGI [5]: > 100 µM
TGI [6]: > 100 µM
TGI [7]: > 100 µM
TGI [8]: 42 µM
TGI [10]: 47.1 µM
TGI [9]: > 100 µM

C=C(C=O)c1c2c(nc3ccccc13)C(=O)c1ccccc1C2=O
TGI [2]: 1.97 µM
TGI [3]: 2.19 µM
TGI [4]: 1.7 µM
TGI [5]: 0.605 µM
TGI [7]: > 100 µM
TGI [8]: 2.85 µM
TGI [10]: > 100 µM
TGI [9]: 4.92 µM

O=C1c2cc3ccccc3cc2C2(c3ccc(Cl)cc3)N[C@H]3CCCC[C@@H]3N12 (stereo not given in full)
TGI [1]: > 100 µM
TGI [3]: 30.6 µM
TGI [4]: 38.7 µM
TGI [5]: 21.8 µM
TGI [6]: 36.3 µM
TGI [7]: 93 µM
TGI [8]: 31.3 µM
TGI [9]: 60.2 µM

CCP(=O)(CC)C(Cl)(Cl)C(O)C(C)(C)C (stereo not given)
TGI [1]: > 100 µM
TGI [2]: > 100 µM
TGI [3]: > 100 µM
TGI [4]: > 100 µM
TGI [6]: > 100 µM
TGI [7]: > 100 µM
TGI [8]: > 100 µM
TGI [10]: > 100 µM
TGI [9]: > 100 µM

NC1CC(=O)c2csc(Br)c21 (stereo not given)
TGI [1]: > 51.4 µM
TGI [2]: 69.2 µM
TGI [3]: 25.4 µM
TGI [4]: 32.2 µM
TGI [5]: 8.24 µM
TGI [6]: > 100 µM
TGI [7]: 32.9 µM
TGI [8]: 30.8 µM
TGI [10]: 34.6 µM
TGI [9]: 29.3 µM

C=C1c2c(cc3c(c2O)c(=O)c2ccccc2n3C)OC1(C)C
TGI [1]: > 100 µM
TGI [2]: > 100 µM
TGI [3]: > 100 µM
TGI [4]: > 100 µM
TGI [5]: > 100 µM
TGI [8]: 27.3 µM

COc1ccc(Cc2nc3cc(C(F)(F)F)ccc3n2CCCN(C)C)cc1
TGI [1]: 34.3 µM
TGI [2]: > 100 µM
TGI [3]: 78.9 µM
TGI [4]: 79.9 µM
TGI [6]: 38.9 µM
TGI [7]: 29.7 µM
TGI [8]: 41.1 µM
TGI [10]: 13.1 µM
TGI [9]: > 100 µM

COc1cc(N=NN(C)C)c(C(C)c2c3cc(OC)c(OC)cc3cc[n+]2C)cc1OC (stereo not given)
TGI [1]: 34.4 µM
TGI [2]: > 100 µM
TGI [3]: > 100 µM
TGI [4]: > 100 µM
TGI [5]: 47.3 µM
TGI [6]: > 100 µM
TGI [7]: > 100 µM
TGI [8]: > 100 µM
TGI [10]: > 100 µM
TGI [9]: > 100 µM

C/C(=N\Nc1ccc([N+](=O)[O-])cc1[N+](=O)[O-])c1ccc2ccccc2n1
TGI [1]: > 100 µM
TGI [2]: > 100 µM
TGI [3]: > 100 µM
TGI [4]: > 100 µM
TGI [5]: > 100 µM
TGI [6]: > 100 µM
TGI [7]: > 100 µM
TGI [8]: > 100 µM
TGI [9]: > 100 µM

c1ccc(N=C2SC(=NNc3ccccc3)SC2=Nc2ccccc2)cc1
TGI [1]: > 100 µM
TGI [2]: > 100 µM
TGI [3]: > 100 µM
TGI [4]: > 100 µM
TGI [5]: > 100 µM
TGI [6]: > 100 µM
TGI [7]: > 100 µM
TGI [8]: > 100 µM
TGI [10]: > 100 µM
TGI [9]: > 100 µM

O=P(O)(O)C(O)/C=C/c1ccccc1 (stereo not given)
TGI [1]: > 100 µM
TGI [2]: > 100 µM
TGI [3]: > 100 µM
TGI [4]: > 100 µM
TGI [6]: > 100 µM
TGI [7]: > 100 µM
TGI [8]: > 100 µM
TGI [10]: > 100 µM
TGI [9]: > 100 µM

O=P(O)(O)C(CSc1ccccc1)P(=O)(O)O
TGI [1]: > 100 µM
TGI [2]: > 100 µM
TGI [3]: > 100 µM
TGI [5]: > 100 µM
TGI [6]: > 100 µM
TGI [8]: > 100 µM
TGI [10]: > 100 µM
TGI [9]: > 100 µM

O=C(O)CSCC(=O)Nc1ccc2cccc3c2c1CC3
TGI [1]: > 100 µM
TGI [3]: > 100 µM
TGI [4]: > 100 µM
TGI [5]: > 100 µM
TGI [6]: > 100 µM
TGI [7]: > 100 µM
TGI [8]: > 100 µM
TGI [10]: > 100 µM
TGI [9]: > 100 µM

CCCNC(=S)N/N=C/c1cccc(C)n1
TGI [1]: > 100 µM
TGI [2]: 72.2 µM
TGI [3]: > 100 µM
TGI [4]: 44.7 µM
TGI [5]: 62.9 µM
TGI [6]: 73.5 µM
TGI [7]: > 100 µM
TGI [8]: > 100 µM
TGI [10]: > 100 µM
TGI [9]: > 100 µM

COc1ccc2c3c1OC1C(=O)C=CC4(O)C(C2)NCC[C@@]314 (stereo not given in full)
TGI [1]: 3.02 µM
TGI [2]: 25.7 µM
TGI [3]: 15.1 µM
TGI [4]: 12.6 µM
TGI [5]: 4.02 µM
TGI [6]: 18.2 µM
TGI [7]: 5.79 µM
TGI [8]: 5.64 µM
TGI [10]: 6.1 µM
TGI [9]: 8.84 µM

Cc1cccc(Nc2cn(COCc3ccccc3)c(=O)[nH]c2=O)c1
TGI [1]: > 100 µM
TGI [3]: > 100 µM
TGI [4]: > 100 µM
TGI [6]: > 100 µM
TGI [7]: > 100 µM
TGI [8]: > 100 µM
TGI [10]: > 100 µM
TGI [9]: > 100 µM

COc1ccc(/C=C2\CSC/C(=C\c3ccc(OC)c(OC)c3OC)C2=O)c(OC)c1OC
TGI [1]: > 100 µM
TGI [2]: > 100 µM
TGI [3]: > 100 µM
TGI [4]: 52.9 µM
TGI [5]: 88.6 µM
TGI [6]: > 100 µM
TGI [8]: > 100 µM
TGI [9]: > 100 µM

CC(C)(C)[Si](C)(C)OCCCC#CCO
TGI [1]: > 100 µM
TGI [3]: > 100 µM
TGI [4]: > 100 µM
TGI [5]: > 100 µM
TGI [6]: > 100 µM
TGI [8]: > 100 µM
TGI [10]: > 100 µM
TGI [9]: > 100 µM

CCc1n[nH]c(=O)n1N1C(=O)C2CC=CCC2C1=O (stereo not given)
TGI [1]: > 100 µM
TGI [2]: > 100 µM
TGI [3]: > 100 µM
TGI [4]: > 100 µM
TGI [5]: > 100 µM
TGI [6]: > 100 µM
TGI [7]: > 100 µM
TGI [8]: > 100 µM
TGI [10]: > 100 µM
TGI [9]: > 100 µM

NC(=O)CCC(NCc1c2ccccc2[n+]([O-])c2ccccc12)C(=O)O (stereo not given)
TGI [1]: > 100 µM
TGI [2]: > 100 µM
TGI [3]: > 100 µM
TGI [4]: > 100 µM
TGI [6]: > 100 µM
TGI [8]: > 100 µM
TGI [10]: > 100 µM
TGI [9]: > 100 µM
